Consider eleven molecules from article PMC11357404, “Cytotoxic and Anti-HSV-1 Effects of Caulerpin Derivatives” (Molecules, 2024).

“Also recorded” adds a separate entry of the source.

The subject of series [1] is Herpes simplex virus type 1 (HSV-1) in Vero cells. Put plainly: Antiviral screening, treatment concomitant to infection (MTT). It is filed as cell-based. The settings on record: HSV-1 MOI 0.2, compound at CC20, 72 h; for inhibition of HSV-1-induced cytotoxicity (in words): versus untreated control or acyclovir. The protocol:
(§1) The antiviral screening tests were performed following the method of Cheng et al., with modifications. For the anti-HSV-1 (herpes simplex virus type 1) activity of caulerpin analogs, Vero cells were used under the same conditions as described for the cytotoxicity test. The assay was divided into two steps:
Cells were infected with HSV-1 (MOI 0.2) and treated with the compound’s CC20 (concentration toxic to 20% of cells). The plates were incubated at 37 °C in 5% CO2 for 72 h, and cell viability was assessed using the MTT method.
(§2) In both assays, wells containing only cell medium were used as controls for cell growth. For positive control, wells containing medium and virus were used, and wells containing medium, virus, and acyclovir were used as a negative control.
(§3) The inhibition ratio was calculated using the following equation. % Inhibition=(OD treatment−OD positivecontrol)/(OD cell growth−OD positive control)×100 where OD = Optical density (absorbance).

Series [2] has the same test system. Put plainly: Antiviral screening, post-infection treatment (MTT). It is filed as cell-based. As to conditions: HSV-1 MOI 0.2 for 1 h, compound at CC20, 72 h, versus infected untreated control or acyclovir. As to the method: as §1
After removing the culture medium, the HSV-1 (MOI 0.2) was added to the wells containing cells for 1 h. After this time, the cells were washed, and the tested compounds and acyclovir were added to their CC20. The plates were incubated at 37 °C in 5% CO2 for 72 h and cell viability was assessed using the MTT method.
as §2, §3

In series [3] the test system is Vero cells. Further details: method as in doi:10.1590/S0102-695X2012005000072. As to conditions: cited from earlier work.
For a further series, the system named is cancer cell. Also noted: method as in PMID 25237346. As to conditions: caulerpin extracted from C. peltata; cited from earlier work.
For a further series, the system named is Chikungunya virus. The settings on record: cited from earlier work.
Series [4] concerns Vero cells. Put plainly: Cytotoxicity, MTT assay in Vero cells. It is filed as cell-based, Cercopithecus aethiops. The settings on record: Chlorocebus sabaeus; Vero cells, MTT, 72 h, 200 to 1800 µM. As to the method: (§4) The method of Cheng et al. was followed with modifications to evaluate the cytotoxicity of caulerpin analogs 1, 2, 3, 4, 5, 7, 8, 9, 10, and 11 at concentrations ranging from 200 to 1800 µM. Vero cells (African green monkey kidney cells Cercopithecus aethiops; ATCC, Manassas, VA, USA) grown in Dulbecco’s modified medium (DMEM) supplemented with 5% fetal bovine serum (FBS), […], and 2.5 µg/mL gentamicin at 37 °C in 5% CO2 were used. Each test sample was diluted in DMEM containing 2% fetal bovine serum at six different concentrations. Vero cells were plated at a concentration of 2 × 10^4 cells/well and incubated for 24–36 h. […] After this time, the medium was discarded and 20 μL of MTT solution was added to each well. The plates were incubated for four hours at 37 °C. Subsequently, the supernatant was removed, and 150 μL of DMSO was added to each well to dissolve the formazan crystals. The plates were shaken for 10 min, followed by absorbance reading in an ELISA microplate reader at a wavelength of 540 nm.
(§5) The MTT assay was validated by constructing a trend line using linear regression in the GraphPad Prism Version 6.01 program. Assays that presented R^2 greater than 0.70 were considered appropriate. After the validation of the MTT assay, the CC50 and CC20 values of each tested analog were calculated.

Series [5] in a line: Cytotoxicity, MTT assay in Vero cells. It is filed as cell-based, Cercopithecus aethiops. The settings on record: African green monkey (Cercopithecus aethiops); for CC50 at 72 h: Absolute CC50, Vero cells, MTT; for viability at 72 h: Vero cells, cell viability curves (Figure 2), read-out: maximum percentage of cell viability. As to the method: as §4, §5
On the technique in general: Tetrazolium assays rely on reduction of a dye to a coloured formazan, in cell work by metabolically active cells.

Usually CC50 stands for the concentration giving 50% cytotoxicity. As usually defined, the EC50 is the midpoint of the concentration-response curve. A word on the Emax: it is the maximal effect, on the per cent scale that the assay sets. Broadly, the viability is the share of living cells, or the viability signal relative to a control.

As for `Nc1nc2c(ncn2COCCO)c(=O)[nH]1` [Acyclovir, reference compound], in series [1] (Vero cells), the “inhibition percentage of HSV-1-induced cytotoxicity” value was found to be 52.79%.

Turning to `COC(=O)/C1=C/c2c([nH]c3ccccc23)/C(C(=O)OC)=C\c2c1[nH]c1ccccc21` [Analog 1, (6E,13E)-dimethyl-5,12-dihydrocycloocta[1,2b:5,6-b′]diindol-6,13-dicarboxylate], the “inhibition of HSV-1-induced cytotoxicity (in words)” value (shortened to “inhibition … (in words)”) in series [2] is reported as “higher percentages of cellular inhibition compared to the control group”. For the same molecule, in the series with Vero cells [3], the CC50 was 1180 µM. In addition, the “inhibition of cancer cell growth” value in the series with cancer cell is 12%. Moreover, the concentration for a half-maximal effect (EC50) in the series on Chikungunya virus (Chikungunya virus, read-out: EC50 inhibitory effect) was 0.8 µM. In addition, the “inhibition of viral infectivity (virucidal activity)” value in the series on Chikungunya virus (at 5 μM concentration) is listed as roughly 90%. Also, in the series with Vero cells [4], the maximal effect (Emax) worked out at 52.7 ± 1.8%. Further, in series [5], the cytotoxic concentration (CC50) at 72 h was found to be 688 ± 35.2 µM.

For `COC(=O)C1=Cc2c(n(C)c3ccccc23)C(C(=O)OC)=Cc2c1n(C)c1ccccc21` [Analog 2, (6E,13E)-Dimethyl-5,12-dimethyl-5,12 dihydrocycloocta[1,2 b: 5,6-b′]diindol-6,13-dicarboxylate], the Emax in the series on Vero cells [4] came to 68.4 ± 0.2%. Moreover, in series [5], the midpoint of cytotoxicity, the CC50 at 72 h, lay at 524 ± 19.3 µM and the viability at 72 h was less than 75%.

Take `CCn1c2c(c3ccccc31)C=C(C(=O)OC)c1c(c3ccccc3n1CC)C=C2C(=O)OC` [Analog 3, (6E,13E)-Dimethyl-5,12-diethyl-5,12 dihydrocycloocta[1,2 b: 5,6-b′]diindole-6,13-dicarboxylate]: the “inhibition … (in words)” value is “higher percentages of cellular inhibition compared to the control group” in series [2] and “significant inhibition” in series [1]. In the series on Vero cells [4], this molecule registered a maximum response (Emax) of 51.5 ± 0.9%. The molecule also had a cytotoxic concentration (CC50) at 72 h in series [5] of 548 ± 38.8 µM.

In the series with Vero cells [4], `C=CCn1c2c(c3ccccc31)C=C(C(=O)OC)c1c(c3ccccc3n1CC=C)C=C2C(=O)OC` [Analog 4] returned a maximal effect (Emax) of 70.1 ± 1.1%. Also, in series [5], the CC50 at 72 h was 628 ± 69.8 µM and the viability at 72 h was less than 75%.

With `COC(=O)C1=Cc2c(n(Cc3ccccc3)c3ccccc23)C(C(=O)OC)=Cc2c1n(Cc1ccccc1)c1ccccc21` [Analog 6, (6E,13E)-Dimethyl-5,12-dinzyl 5,12-dihydrocycloocta[1,2b:5,6-b′]diindol-6,13-dicarboxylate], the “inhibition … (in words)” value in series [2] is listed as “higher percentages of cellular inhibition compared to the control group”; in series [1], “significant inhibition”. Besides, in the series on Vero cells [4], the Emax worked out at 74.1 ± 1.8%. Further, the CC50 at 72 h in series [5] turned out to be 891 ± 87.8 µM.

Molecule `O=C(O)C1=Cc2c([nH]c3ccccc23)C(C(=O)O)=Cc2c1[nH]c1ccccc21` [Analog 9, (6E,13E)-5,12-Dihydrocycloocta[1,2b:5,6-b′]diindol-6,13-dicarboxylic acid] had an Emax in the series on Vero cells [4] of 62.6 ± 0.7%. Moreover, the 50% cytotoxic concentration (CC50) at 72 h in series [5] was determined as 1040 ± 62.4 µM.

Take `Cn1c2c(c3ccccc31)C=C(C(=O)O)c1c(c3ccccc3n1C)C=C2C(=O)O` [Analog 10, (6E,13E)-5,12-Dimethyl-5-dihydrocycloocta[1,2b:5,6-b’]diindol-6,13-dicarboxylic acid]: in series [2], the “inhibition … (in words)” value is “higher percentages of cellular inhibition compared to the control group; also recorded: antiviral effects statistically similar to acyclovir”. In the series with Vero cells [4], this molecule had an Emax of 71.8 ± 0.3%. The molecule further yielded a 50% cytotoxic concentration (CC50) at 72 h in series [5] of 679 ± 38.3 µM.

Take `CCn1c2c(c3ccccc31)C=C(C(=O)O)c1c(c3ccccc3n1CC)C=C2C(=O)O` [Analog 11, (6E,13E)-5,12-Diethyl-5,12-dihydrocycloocta[1,2b:5,6-b′]diindol-6,13-dicarboxylic acid]: the entries for the “inhibition … (in words)” value in series [2] and in series [1] were “higher percentages of cellular inhibition compared to the control group; also recorded: antiviral effects statistically similar to acyclovir” and “significant inhibition; also recorded: efficacy similar to the antiviral agent acyclovir”, respectively. In addition, in the series with Vero cells [4], the Emax is 62.7 ± 0.8%. The molecule further had a CC50 at 72 h in series [5] of 1000 ± 41.6 µM.

`C=CCn1c2c(c3ccccc31)C=C(C(=O)O)c1c(c3ccccc3n1CC=C)C=C2C(=O)O` [Analog 12, (6E,13E)-5,12-Diallyl-5,12-dihydrocycloocta[1,2b:5,6-b′]diindol-6,13-dicarboxylic acid]: the “inhibition … (in words)” value in series [2] is “higher percentages of cellular inhibition compared to the control group”; in series [1], “significant inhibition; also recorded: efficacy similar to the antiviral agent acyclovir”. Also, in the series on Vero cells [4], the maximal response (Emax) turned out to be 44.5 ± 1.3%. This molecule also showed a 50% cytotoxic concentration (CC50) at 72 h in series [5] of 664 ± 55.3 µM.

Regarding `O=C(O)C1=Cc2c(n(Cc3ccccc3)c3ccccc23)C(C(=O)O)=Cc2c1n(Cc1ccccc1)c1ccccc21` [Analog 13, (6E,13E)-5,12-Dibenzyl-5,12-dihydrocycloocta[1,2 b: 5,6-b′]diindol-6,13-dicarboxylic acid], the Emax in the series with Vero cells [4] was 41 ± 1.2%. This molecule showed a CC50 at 72 h in series [5] of 494 ± 51.4 µM.
